Experimental data from US5830903A, “Triazole substituted quinoline derivatives for gastrointestinal treat-treatment” (Alkaloida Chemical Co., Ltd., priority 1993, dated 1998).
Marks after values point to notes of the source that are not given here.

Tests used:
[1] = system: lesions induced with hydrochloric acid and ethanol; test: Gastric haemorrhages induced by hydrochloric acid in ethanol (cytoprotection); type: in vivo, female rats; settings: for average length of haemmorrhages, change in %: treated vs control
Description: The volume of treatment was 0.5 ml/100 g. […] The average degree of haemorrhages of the treated groups was compared to the control groups treated with the vehicle only. Number of animals was 6-18 in each group.

Acute toxicity in mice = settings: mouse, in vivo, po, per os, 14 days
Description: (§1) To determine acute toxicity the test substances were administered in increasing doses to CFLP male mice (18-20 g) and to male Wistar rats (150-160 g). The LD50 values were calculated after 14 days of observation according to Litchfield and Wilcoxon.

Acute toxicity in rats = settings: rat, in vivo, po, per os, 14 days
Description: as §1

[2] = system: lesions caused by intomethacin; test: Indomethacin-induced gastric lesions; type: in vivo, female OFA-rats; settings: Rattus norvegicus, po, 60 min before 20 mg/kg indomethacin; 6 h; from ulcer index; confidence limits 95%; read-out: ED50 mg/kg (p.o.)
Description: The compounds were administered in a volume of 0.5 ml/100 g in a suspension prepared in water with 2-4% Tween-80. After 6 hours the animals were over-anesthesized and their stomachs were opened along the greater curvature. The preparations were investigated by stereomicroscopy using an 8-fold enlargement. The number, size and incidence of erosions and ulcers was noted and compared with the control group treated with the carrier only.
The size of the ulcers was determined on the basis of the following score:
1: ulcer or erosion of the size of 1-2 mm;
2: ulcer or erosion of the size of 2-3 mm;
3: ulcer or erosion of the size of 3-4 mm;
4: ulcer longer than 4 mm;
5: ulcer longer and broader than 4 mm.
The ED50 values were calculated on the basis of ulcer-indexes:
ulcer index=/severeity of lesion x number of lesions/number of animals /n/

[3] = system: lesions caused by the NSAID naproxen; test: Naproxen-induced gastric erosions, test substance 1 hour after naproxen; type: in vivo, WISTAR rats; settings: n = 7
Description: (§2) Administration of the test substances followed 1 hour after injection. After 4 hours the animals were over-anesthesized with ether and the changes (erosions) were evaluated as in Example I.1. The size of the lesions was characterized by way of the ulcer index.

[4] = system: lesions caused by the NSAID piroxicam; test: Piroxicam-induced gastric erosions, test substance 1 hour after piroxicam; type: in vivo, WISTAR rats; settings: n = 7
Description: as §2

[5] = system: alcohol induced increase of gastric glandular capillary permeability; test: Alcohol induced increase of gastric glandular capillary permeability; type: in vivo, rats; settings: for Evans-blue: p < 0.05
Description: After 13 minutes 1 ml of 100% ethanol was added perorally and after further 2 minutes the stomachs were removed and their weights measured. […]

[6] = system: ulcers induced by reserpine; test: Reserpine induced ulcers; type: in vivo, female OFA rats; settings: 40 mg/kg p.o.; reserpine 5 mg/kg s.c.; 18 h
Description: Female OFA rats of 130-160 g weight, starved for 24 hours, were treated at the same time perorally with 40 mg/kg doses of the substances to be tested and with 5 mg/kg s.c. doses of reserpine. After 18 hours the animals were over-anesthesized and the removed stomachs were investigated under stereomicroscope using a 8-fold enlargement. The number of ulcers was counted and their size was evaluated using 0-0.5-1-2-4-8-16-32 scores. The number of animals was 5 for each dose.

[7] = system: stress ulcer caused by immersion; test: Stress ulcer caused by immersion; type: in vivo, Wistar rats
Description: 30 minutes after peroral treatment with the test substance, […]. After seven hours the glandular lesions appearing in the stomach were evaluated according to the score described in Example I.1.

[8] = system: histamine stimulated hydrochlorid acid secretion; test: Histamine stimulated gastric acid secretion in Shay rats; type: in vivo; settings: for acid secretion μEqu/4^h: p < 0.01
Description: The test substances were added on the course of operation intra-duodenally. Immediately after operation each rat obtained 0.50 ml s.c. of a physiological salt solution for hydration. After 4 hours the rats were over-anesthesized, the stomach liquid was collected, centrifugated and the volume determined. […] Measurement of stimulated secretion of gastric acid was also carried out according to the above method.

[9] = system: basic gastric acid secretion; test: Basic gastric acid secretion in Shay rats (pylorus ligation); type: in vivo; settings: for acidity μEqu/ml / volume: 4 h
Description: The pilorus of Shay rats of 150-170 g weight was tied in ether narcosis /Gastroenterology 5,43,1945/. The test substances were added on the course of operation intra-duodenally. Immediately after operation each rat obtained 0.50 ml s.c. of a physiological salt solution for hydration. After 4 hours the rats were over-anesthesized, the stomach liquid was collected, centrifugated and the volume determined. Acidity of the secretion was determined with 0.1N aqueous sodium hydroxide in the presence of a Tobfler reagent.

gastric blood-supply = test: Gastric blood-supply, Rb^86 isotope method (Sapirstain); type: in vivo, Wistar female rats; settings: 100 mg/kg p.o., n = 11, ± SE
Description: To investigate influence of gastric blood-supply the tests were carried out according to the method of Sapirstain using Rb^86 isotopes (Circ.Res.4, 689, 1956; Am. J. Physiol. 193. 161,1958). The test substances were administered perorally 2 hours before the experiment started and the degree of blood flow was determined in ml/min/g values. In the experiments the stomachs of Wistar female rats were divided into three segments i.e. pre-stomach, corpus and anthrum.

[10] = naproxen 75 mg/kg po. + 20 mg/kg po.
[11] = 25 mg/kg p.o., n = 10, p < 0.01
[12] = histamine 10 mg/kg s.c. + 5 mg/kg i.d., p < 0.05

## c1ccc2c(-n3cncn3)ccnc2c1 [Substance 1, 4-(1H-1,2,4-triazole-1-yl)-quinoline]
[1]; 2.3 mg/kg p.o., n = 12, control 95.7 ± 9.4
  average length of haemmorrhages, treated: 91.0 ± 9.4 mm
[1]; 2.3 mg/kg p.o.
  average length of haemmorrhages, change in %: -4%
[1]; 5.0 mg/kg p.o., n = 18, control 92.9 ± 6.3
  average length of haemmorrhages, treated: 39.7 ± 8.1 mm
[1]; 5.0 mg/kg p.o.
  average length of haemmorrhages, change in %: -57%
[1]; 10.0 mg/kg p.o., n = 18, control 61.3 ± 9.8
  average length of haemmorrhages, treated: 14.2 ± 7.4 mm
[1]; 10.0 mg/kg p.o.
  average length of haemmorrhages, change in %: -77%
Acute toxicity in mice
  LD50 at 336 h: 840 mg/kg
Acute toxicity in rats
  LD50 at 336 h: 560 mg/kg
[2]
  ED50: 13 mg/kg
[3]; [10]
  inhibition %: 39%
  ulcus index ± SEM: 15.6 ± 6.4
[3]; naproxen, 30 mg/kg po.
  inhibition %: 95%
[3]; naproxen, 30 mg/kg po., p < 0.01
  ulcus index ± SEM: 1.2 ± 0.5
[4]; piroxicam 60 mg/kg po. + 20 mg/kg po.
  inhibition %: 84%
[4]; piroxicam 60 mg/kg po. + 20 mg/kg po., p < 0.05
  ulcus index ± SEM: 3.8 ± 0.4
[4]; piroxicam, 30 mg/kg po.
  inhibition %: 93%
[4]; piroxicam, 30 mg/kg po., p < 0.01
  ulcus index ± SEM: 1.8 ± 0.5
[5]; 10 and 20 mg/kg
  alcohol-induced lesions (in words): alcohol-induced lesions are reduced
[5]; 100% ethanol + 10 mg/kg
  stomach: 0.91 ± 0.1 g
  Evans-blue: 4.55 ± 0.3 µg/g
[5]; 100% ethanol + 20 mg/kg
  stomach: 0.93 ± 0.1 g
  Evans-blue: 4.4 ± 0.23 µg/g
[6]
  number of ulcers, %change compared with control: +4%
  severity of ulcers, %change compared with control: +9%
  ulcers per treated: 5/5
[7]; 10 mg/kg p.o., n = 7
  erosion inhibition %: 21%
  erosion ulcus-index mm: 33.6 ± 10.2 mm
  hyperemia inhibition %: 29%
  hyperemia ulcer-index mm: 64.3 ± 8.6 mm
[7]; 25 mg/kg p.o., n = 10
  erosion ulcus-index mm: 12.1 ± 3.6 mm
  hyperemia ulcer-index mm: 35.8 ± 9.4 mm
[7]; [11]
  erosion inhibition %: 71%
  hyperemia inhibition %: 55%
[7]; 50 mg/kg p.o., n = 7
  erosion ulcus-index mm: 5.7 ± 1.5 mm
  hyperemia ulcer-index mm: 11.4 ± 2.8 mm
[7]; 50 mg/kg p.o., n = 7, p < 0.01
  erosion inhibition %: 87%
  hyperemia inhibition %: 85%
[7]; substance 1 at 50 mg/kg p.o., cimetidine
  inhibition of hyperemia and erosion (in words): significally inhibit hyperemia and erosion
[8]; histamine 10 mg/kg s.c. + 5 mg/kg i.d.
  acid secretion μEqu/4^h: 180 ± 12 μEqu/4^h
[8]; [12]
  acidity μEqu/ml: 105 ± 10 μEqu/ml
  volume/4^h: 1.7 ± 0.2 mL
[8]; histamine s.c. + 10 mg/kg i.d.
  acid secretion μEqu/4^h: 111 ± 9 μEqu/4^h
[8]; histamine s.c. + 10 mg/kg i.d., p < 0.05
  acidity μEqu/ml: 123 ± 8 μEqu/ml
[9]; dose 5 i.d.
  acidity μEqu/ml: 105 ± 5 μEqu/ml
[9]; dose 5 i.d., p < 0.05
  volume: 1.4 ± 1.24 mL
  acid secretion μEqu/4^h: 147.0 ± 0.19 μEqu/4^h
[9]; dose 10 i.d., not possible to titrate part of the secretion because of small volume
  acidity μEqu/ml: 61 ± 5 μEqu/ml
[9]; dose 10 i.d., p < 0.01
  volume: 0.58 ± 0.1 mL
  acid secretion μEqu/4^h: 42.0 ± 0.3 μEqu/4^h
Gastric blood-supply; control 0.23 ± 0.03
  blood flow, pre-stomach: 0.19 ± 0.01 mL/min/g
Gastric blood-supply; control 0.51 ± 0.03, p < 0.02
  blood flow, corpus: 0.70 ± 0.09 mL/min/g
Gastric blood-supply; control 0.71 ± 0.07
  blood flow, anthrum: 1.01 ± 0.07 mL/min/g
